Data: ChEMBL document CHEMBL5036332, “Glucose-Lipopeptide Conjugates Reveal the Role of Glucose Modification Position in Complexation and the Potential of Malignant Melanoma Therapy” (J Med Chem, 2021)
Blank lines part the entries; values can stand above or below the compound they belong to. Activity calls are given as the source filed them. The calls are words filed in the database; no cut-off is given here. *1 amine or outer side, *2 acyl side, *3 side chain or, on linkers, in order; H or OH if unused. Where a SMILES comes first, the peptide text is derived from it. Side-chain parts run from the residue outwards. The star is where a group is joined. NH(CH2)3O(βDGlc) = OC[C@H]1O[C@@H](OCCCN*)[C@H](O)[C@@H](O)[C@@H]1O; Glutaryl = O=C(CCCC(=O)[*:2])[*:1]; Lauroyl = CCCCCCCCCCCC(=O)*

Tests used:
B16-F10 [1] = assay: Antitumor activity against mouse B16-F10 cells implanted in BALB/c mouse assessed as reduction in tumor volume at 15 mg/kg, ip administered for every 2 days; type: functional, organism-based; settings: time 2.0 day
Homo sapiens = organism: Homo sapiens; assay: Binding affinity to membrane (unknown origin) assessed as binding free energy
[2] = Stability in 10% fetal bovine serum measured after 24 hrs; type: ADME, cell-free, Bos taurus; settings: cattle
[3] = target: T1, Solute carrier family 2, facilitated glucose transporter member 1 (Homo sapiens) (UniProt P11166); assay: Binding affinity to GLUT1 (unknown origin) assessed as binding free energy
T1 sequence (whole entry): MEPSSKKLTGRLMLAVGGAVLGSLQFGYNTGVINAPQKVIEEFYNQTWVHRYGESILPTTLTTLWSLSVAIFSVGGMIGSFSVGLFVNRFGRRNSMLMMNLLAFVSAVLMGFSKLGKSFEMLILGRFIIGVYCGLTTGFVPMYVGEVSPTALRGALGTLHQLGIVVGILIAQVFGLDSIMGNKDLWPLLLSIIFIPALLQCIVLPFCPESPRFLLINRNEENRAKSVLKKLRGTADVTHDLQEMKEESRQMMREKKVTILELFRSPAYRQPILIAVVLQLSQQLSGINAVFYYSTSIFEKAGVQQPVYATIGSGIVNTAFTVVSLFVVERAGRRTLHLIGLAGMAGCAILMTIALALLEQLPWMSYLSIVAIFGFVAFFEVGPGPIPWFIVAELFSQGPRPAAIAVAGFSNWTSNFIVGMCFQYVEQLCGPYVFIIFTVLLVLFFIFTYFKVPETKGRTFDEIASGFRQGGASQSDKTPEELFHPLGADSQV

B16-F10 [4] = assay: Antimetastatic activity against mouse B16-F10 cells implanted in KM mouse assessed as reduction lung metastatic nodules at 200 microL of 10 mg/kg, iv administered once every 2 days by H and E staining method; type: functional, organism-based; settings: time 2.0 day
B16-F10 [5] = assay: Induction of cell membrane disruption in mouse B16-F10 cells assessed as membrane permeability at 5 uM incubated for 24 hrs by trypan blue staining based light microscopy; type: functional
[6] = target: T1, Solute carrier family 2, facilitated glucose transporter member 1 (Homo sapiens); assay: Induction of GLUT1-mediated HEK293T cytotoxicity assessed as cell viability at 3.125 uM incubated for 24 hrs by CCK-8 assay
B16-F10 [7] = assay: Antitumor activity against mouse B16-F10 cells implanted in BALB/c mouse assessed as apoptotic cells in tumor tissue at 15 mg/kg, ip administered for 12 days by TUNEL assay; type: functional, organism-based; settings: time 12.0 day
B16-F10 [8] = assay: Anti-migration activity against mouse B16-F10 cells assessed as inhibition of spheroid migration at 2.5 uM after 3 days by crystal violet staining based assay; type: functional, cell-based; settings: time 3.0 day
[9] = Toxicity in BALB/c mouse implanted in mouse B16-F10 cells assessed as body weight change at 15 mg/kg, ip administered for days; type: organism-based; settings: in vivo
B16-F10 [10] = assay: Antiinvasive activity against mouse B16-F10 cells assessed as inhibition of cell migration at 0.75 to 1.5 microM incubated for 72 hrs by transwell migration assay; type: functional, cell-based; settings: dose 0.75-1.5 µM
[11] = Toxicity in BALB/c mouse implanted in mouse B16-F10 cells assessed as pathological changes in heart at 15 mg/kg, ip administered for days by H& E staining based assay; type: organism-based; settings: in vivo
[12] = target: T1, Solute carrier family 2, facilitated glucose transporter member 1 (Homo sapiens); assay: Induction of GLUT1-mediated human HeLa cell cytotoxicity assessed as cell viability at 12.5 uM incubated for 24 hrs by CCK-8 assay
B16-F10 [13] = assay: Cytotoxicity against mouse B16-F10 cells assessed as inhibition of spheroid proliferation at 5 uM after 3 days by 3D-shperoid assay relative to control; type: functional, cell-based; settings: time 3.0 day
[14] = target: T1, Solute carrier family 2, facilitated glucose transporter member 1 (Homo sapiens); assay: Induction of GLUT1-mediated human A549 cell cytotoxicity assessed as cell viability at 12.5 uM incubated for 24 hrs by CCK-8 assay
B16-F10 [15] = assay: Cytotoxicity against mouse B16-F10 cells assessed as LDH release at 3.125 to 6.25 uM incubated for 24 hrs by LDH assay; type: functional, cell-based; settings: dose 3.125-6.25 µM
B16-F10 [16] = assay: Induction of cell membrane disruption in mouse B16-F10 cells assessed as shrunken morphology at 5 uM incubated for 24 hrs by scanning electron microscopy; type: functional, cell-based
B16-F10 [17] = assay: Antitumor activity against mouse B16-F10 cells implanted in KM mouse assessed as metastatic nodules in lungs at 10 mg/kg, iv administered for every 2 days measured after 9 days; type: functional, organism-based; settings: time 9.0 day
B16-F10 [18] = assay: Cytotoxicity against mouse B16-F10 cells assessed as cell viability after 24 hrs by CCK-8 assay; type: functional, cell-based; settings: B16-F10, 24 h
[19] = Toxicity in BALB/c mouse implanted in mouse B16-F10 cells assessed as pathological changes in spleen at 15 mg/kg, ip administered for days by H& E staining based assay; type: organism-based; settings: in vivo
B16-F10 [20] = assay: Induction of GLUT1-mediated mouse B16-F10 cell cytotoxicity assessed as cell viability at 3.125 uM incubated for 24 hrs by CCK-8 assay
[21] = target: T1, Solute carrier family 2, facilitated glucose transporter member 1 (Homo sapiens); assay: Binding affinity to GLUT1 (unknown origin) membrane assessed as free energy
[22] = Toxicity in KM mouse implanted in mouse B16-F10 cells assessed as body weight change at 10 mg/kg, iv administered for days; type: organism-based; settings: in vivo
[23] = Toxicity in BALB/c mouse implanted in mouse B16-F10 cells assessed as pathological changes in liver at 15 mg/kg, ip administered for days by H& E staining based assay; type: organism-based; settings: in vivo
B16-F10 [24] = assay: Induction of cell membrane disruption in mouse B16-F10 cells incubated for 24 hrs by SYTO 9/PI staining based fluorescence microscopy; type: functional
B16-F10 [25] = assay: Cytotoxicity against GLUT1 - knocked down mouse B16-F10 cells assessed as cell viability after 24 hrs by CCK-8 assay; type: functional, cell-based
B16-F10 [26] = assay: Antiproliferative activity against mouse B16-F10 cells assessed as inhibition of colony formation incubated for 12 days by crystal violet dye based assay; type: functional, cell-based; settings: B16-F10, 288 h
B16-F10 [27] = assay: Antiinvasive activity against mouse B16-F10 cells assessed as inhibition of cell migration at 0.75 microM incubated for 72 hrs by Matrigel based transwell invasion assay; type: functional

deltaG (Homo sapiens): -65.7 kcal/mol | Stability [2]: Stable | deltaG [3]: -66.4 kcal/mol | deltaG [21]: -67.5 kcal/mol
Structure (SMILES): CCCCCCCCCCCC(=O)N[C@@H](CCCNC(=N)N)C(=O)NCC(=O)N[C@@H](Cc1c[nH]c2ccccc12)C(=O)N[C@@H](Cc1ccccc1)C(=O)N[C@@H](CCCNC(=N)N)C(=O)N[C@@H](C)C(=O)N[C@@H](CCSC)C(=O)N[C@@H](CCCNC(=N)N)C(=O)N[C@@H](CO)C(=O)N[C@H](C(=O)N[C@@H](C)C(=O)N[C@@H](CCCNC(=N)N)C(=O)N[C@@H](Cc1ccccc1)C(=O)N[C@H](C(=O)N[C@@H](C)C(=O)N[C@@H](CCCNC(=N)N)C(=O)N[C@@H](CCC(=O)O)C(=O)N[C@@H](CCCNC(=N)N)C(=O)N[C@@H](CC(C)C)C(=O)N[C@@H](CCCNC(=N)N)C(=O)N[C@@H](CCC(=O)O)C(=O)N[C@@H](Cc1cnc[nH]1)C(=O)N[C@@H](CC(C)C)C(N)=O)[C@@H](C)CC)[C@@H](C)CC (HELM PEPTIDE1{[CCCCCCCCCCCC(=O)[*:2]].R.G.W.F.R.A.M.R.S.I.A.R.F.I.A.R.E.R.L.R.E.H.L.[am]}$$$$V2.0)
Activity (B16-F10 [1]): inactive | Activity (B16-F10 [4]): inactive | Activity (B16-F10 [5]): Active | Activity [6]: Active | Activity (B16-F10 [7]): Active | Activity (B16-F10 [8]): Active | Activity [9]: Non-Toxic | Activity (B16-F10 [10]): inactive | Activity [11]: Non-Toxic | Activity [12]: Active | Activity (B16-F10 [13]): Active | Activity [14]: Active | Activity (B16-F10 [15]): Active | Activity (B16-F10 [16]): Active | Activity (B16-F10 [17]): inactive | IC50 (B16-F10 [18]): 3000 nM | Activity [19]: Non-Toxic | Activity (B16-F10 [20]): Active | Activity [22]: Non-Toxic | Activity [23]: Non-Toxic | Activity (B16-F10 [24]): Active

deltaG (Homo sapiens): -76.6 kcal/mol | Stability [2]: Stable | deltaG [3]: -78 kcal/mol | IC50 (B16-F10 [26]): 370 nM | deltaG [21]: -79.6 kcal/mol
Structure (SMILES): CCCCCCCCCCCC(=O)N[C@@H](CCCNC(=N)N)C(=O)NCC(=O)N[C@@H](Cc1c[nH]c2ccccc12)C(=O)N[C@@H](Cc1ccccc1)C(=O)N[C@@H](CCCNC(=N)N)C(=O)N[C@@H](C)C(=O)N[C@@H](CCSC)C(=O)N[C@@H](CCCNC(=N)N)C(=O)N[C@@H](CO)C(=O)N[C@H](C(=O)N[C@@H](C)C(=O)N[C@@H](CCCCNC(=O)CCCC(=O)NCCCO[C@@H]1O[C@H](CO)[C@@H](O)[C@H](O)[C@H]1O)C(=O)N[C@@H](Cc1ccccc1)C(=O)N[C@H](C(=O)N[C@@H](C)C(=O)N[C@@H](CCCNC(=N)N)C(=O)N[C@@H](CCC(=O)O)C(=O)N[C@@H](CCCNC(=N)N)C(=O)N[C@@H](CC(C)C)C(=O)N[C@@H](CCCNC(=N)N)C(=O)N[C@@H](CCC(=O)O)C(=O)N[C@@H](Cc1cnc[nH]1)C(=O)N[C@@H](CC(C)C)C(N)=O)[C@@H](C)CC)[C@@H](C)CC (Lauroyl-RGWFRAMRSIAK([Glutaryl-NH(CH2)3O(βDGlc)])FIARERLREHL-NH2)
Activity (B16-F10 [1]): Active | Activity (B16-F10 [25]): inactive | Activity (B16-F10 [4]): inactive | Activity (B16-F10 [5]): Active | Activity [6]: inactive | Activity (B16-F10 [7]): Active | Activity (B16-F10 [8]): Active | Activity [9]: Non-Toxic | Activity (B16-F10 [10]): Active | Activity [11]: Non-Toxic | Activity [12]: Active | Activity (B16-F10 [13]): Active | Activity [14]: Active | Activity (B16-F10 [15]): Active | Activity (B16-F10 [16]): Active | Activity (B16-F10 [17]): Active | Activity (B16-F10 [27]): Active | IC50 (B16-F10 [18]): 1900 nM | Activity [19]: Non-Toxic | Activity (B16-F10 [20]): Active | Activity [22]: Non-Toxic | Activity [23]: Non-Toxic | Activity (B16-F10 [24]): Active
